Drawing on US9359338B2, “Cyclopropanecarboxamido-substitute aromatic compounds as anti-tumor agents” (Crown Bioscience Inc. (Taiwan), priority 2012, dated 2016), this text covers IC50 for 30 molecules.

Like-named read-outs stand apart in the source and are kept apart here.

Assay [1] concerns pERK in MDA-MB-231 cells. Put plainly: Inhibitory activity at pERK (In Cell Western, MDA-MB-231 cells). In kind it is cell-based. The conditions noted are these: Homo sapiens. Summed up: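 pERK was measured by in-cell immunofluorescence (PI nuclear counterstain, Acumen read-out) in fixed MDA-MB-231 cells. Compound exposure lasted 2 h in DMEM with 0.1% BSA, using eight 3-fold dilutions starting at 30 μM final and 0.3% DMSO. IC50 values were derived from the resulting curves.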

The test system of assay [2] is PLC-PRF-5 cells. Put plainly: Inhibition of proliferation of PLC-PRF-5 cells (ATPlite). The assay is classed as cell-based. The conditions noted are these: Homo sapiens. Summed up: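 Antiproliferative IC50 from luminescent ATP detection (ATPlite) after 96 h compound exposure at 37 °C. Cells grown in DMEM plus 10% FBS and allowed 2 h to settle, then dosed with eight 3-fold dilutions topping at 30 μM final, DMSO 0.3%.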

The target of assay [3] is B-Raf kinase (Homo sapiens (Human), UniProt P15056). Put plainly: Inhibitory activity at B-Raf kinase (ADP-GLO assay). The assay is classed as biochemical. On the procedure:
Inhibitory Activity of Compounds at B-Raf Kinase
• [Experimental method]: Use ADP-GLO™ assay kit from Promega to evaluate the inhibitory activity of compounds at B-Raf • [Instrument]: PerKinElmer's ENVISION plate reader • [Material]: Optiplate-384 well plate (PerKinElmer), kinase buffer (50 mM Hepes pH7.5, 1 mM EGTA, 2 mM DTT, 10 mM Mg^2+, 0.05% BSA), B-Raf kinase (Millipore, catalogue #14-530-K), GST-MEK1 substrate (Carna, catalogue #07-141-10), Super pure ATP (Promega), ADP-GLO™ assay kit (Promega, catalogue # V9102), DMSO (Sigma, catalogue #34869), purified water (Millipore, type: Milli-Q). • [Study conditions]: Mix B-Raf kinase (final concentration: 5 nM) and compound (DMSO final concentration: 0.25%) and preincubate at 30° C. for 20 min, then add ATP (final concentration: 6 μM) and reaction substrate (final concentration: 30 nM), React for 2 hrs at 30° C. After reaction, add ADP-GLO™ reagent, react for 40 min at room temperature, then add ADP-GLO™ detecting agent, react for 30 min at room temperature. After that, use ENVSION to measure the […]. • [Samples]: Compounds in the examples and Sorafenib (positive control) • [Data analysis]: Use CBIS data analysis software to calculate IC50 values

Assay [4] addresses KDR kinase (790-1356 AA) (Homo sapiens (Human), UniProt P35968). Put plainly: Inhibitory activity at KDR kinase (Lance Ultra Ulight-TK assay). The assay is classed as biochemical. Summed up: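 Kinase (20 nM final) and compound were premixed 20 min at 30 °C, then phosphorylation ran 2 h at 30 °C with ATP at 90 μM and Ulight-TK substrate at 50 μM, pH 7.5, Mg2+ and Mn2+ present.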

Where [5] appears, read: MDA-MB-231, MDA-MB-231 cells, read-out: MDA-MB-231 pERK IC50.
Where [6] appears, read: PLC-PRF-5, PLC-PRF-5 cells, read-out: PLC-PRF-5 cell proliferation IC50.

Chain of B-Raf kinase (P15056 416-766): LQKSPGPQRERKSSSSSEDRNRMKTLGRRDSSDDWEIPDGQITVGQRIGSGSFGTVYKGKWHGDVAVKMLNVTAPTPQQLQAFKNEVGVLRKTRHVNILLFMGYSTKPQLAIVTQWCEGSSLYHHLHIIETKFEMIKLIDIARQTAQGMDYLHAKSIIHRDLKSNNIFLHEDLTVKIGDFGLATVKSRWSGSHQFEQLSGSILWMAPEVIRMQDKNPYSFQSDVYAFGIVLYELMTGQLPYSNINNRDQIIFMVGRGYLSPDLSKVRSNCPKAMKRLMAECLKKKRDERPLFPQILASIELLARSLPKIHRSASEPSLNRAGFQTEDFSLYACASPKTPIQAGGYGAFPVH
Chain of KDR kinase (790-1356 AA) (P35968 790-1356): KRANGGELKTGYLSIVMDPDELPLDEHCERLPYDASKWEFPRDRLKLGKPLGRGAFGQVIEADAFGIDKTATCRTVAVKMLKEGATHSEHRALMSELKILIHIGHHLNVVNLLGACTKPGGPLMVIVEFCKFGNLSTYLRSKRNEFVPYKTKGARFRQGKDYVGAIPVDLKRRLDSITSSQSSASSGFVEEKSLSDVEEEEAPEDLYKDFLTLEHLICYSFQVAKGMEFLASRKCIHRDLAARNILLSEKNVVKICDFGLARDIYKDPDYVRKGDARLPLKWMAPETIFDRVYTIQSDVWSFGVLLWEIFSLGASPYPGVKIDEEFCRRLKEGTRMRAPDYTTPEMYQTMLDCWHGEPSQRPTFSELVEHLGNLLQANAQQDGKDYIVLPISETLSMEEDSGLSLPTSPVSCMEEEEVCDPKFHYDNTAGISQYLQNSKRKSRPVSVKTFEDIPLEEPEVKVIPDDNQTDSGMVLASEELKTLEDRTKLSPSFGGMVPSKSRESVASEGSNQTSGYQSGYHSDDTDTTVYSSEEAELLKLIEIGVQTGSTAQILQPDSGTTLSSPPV

Regarding `O=C(Nc1ccc(Cl)c(C(F)(F)F)c1)Nc1ccc(Oc2ccnc(NC(=O)C3CC3)c2)cc1F` [Exe. 029], the IC50 in assay [1] (setting [5]) is 10.1 nM; in assay [2] (setting [6]) it was 790 nM; in assay [3], 7.3 nM; in assay [4] it was 3.9 nM.

For the molecule `Cc1ccc(Oc2ccnc(NC(=O)C3CC3)c2)cc1NC(=O)Nc1ccc(Cl)c(C(F)(F)F)c1` [Exe. 030], the IC50 in assay [1] (setting [5]) was 23.2 nM; in assay [2] (setting [6]) it was 2800 nM; in assay [3], 18 nM; in assay [4] it was 12.4 nM.

Regarding `Cc1cc(NC(=O)Nc2ccc(Cl)c(C(F)(F)F)c2)ccc1Oc1ccnc(NC(=O)C2CC2)c1` [Exe. 031], the IC50 in assay [1] (setting [5]) was 33.8 nM; in assay [2] (setting [6]), 1300 nM; in assay [3] it was 25 nM; in assay [4], 14.5 nM.

As to `O=C(Nc1cccc(OC(F)(F)F)c1)Nc1ccc(Oc2ccnc(NC(=O)C3CC3)c2)cc1F` [Exe. 034], the IC50 in assay [1] (setting [5]) came to 4.7 nM; in assay [2] (setting [6]), 219 nM; in assay [3] it was 9.4 nM; in assay [4], 10.2 nM.

As for `CC(F)(F)c1cc(F)cc(NC(=O)Nc2ccc(Oc3ccnc(NC(=O)C4CC4)c3)cc2F)c1` [Exe. 035], the IC50 was found to be 9.3 nM in assay [1] (setting [5]), 259 nM in assay [2] (setting [6]), 8.9 nM in assay [3] and 7.8 nM in assay [4].

With `CS(=O)(=O)c1cc(NC(=O)Nc2ccc(Oc3ccnc(NC(=O)C4CC4)c3)c(F)c2)cc(C(F)(F)F)c1` [Exe. 037], the IC50 in assay [1] (setting [5]) was 33.9 nM; in assay [2] (setting [6]), 768 nM; in assay [3], 26 nM; in assay [4] it was 13.5 nM.

As to `CN1CCC(Oc2cc(NC(=O)Nc3ccc(Oc4ccnc(NC(=O)C5CC5)c4)c(F)c3)cc(C(F)(F)F)c2)C1` (stereo not drawn) [Exe. 038], the IC50 was 23.5 nM in assay [1] (setting [5]), 130 nM in assay [2] (setting [6]), 5.3 nM in assay [3] and 8.2 nM in assay [4].

`CC1CN(c2cc(NC(=O)Nc3ccc(Oc4ccnc(NC(=O)C5CC5)c4)c(F)c3)cc(C(F)(F)F)c2)C(=O)O1` (stereo not drawn) [Exe. 041]: the IC50 amounted to 18.1 nM in assay [1] (setting [5]), 358 nM in assay [2] (setting [6]), 37.5 nM in assay [3] and 4.2 nM in assay [4].

For `CC(=O)Nc1cc(NC(=O)Nc2ccc(Oc3ccnc(NC(=O)C4CC4)c3)c(F)c2)cc(C(F)(F)F)c1` [Exe. 044], the IC50 in assay [1] (setting [5]) was 29.8 nM; in assay [2] (setting [6]), 752 nM; in assay [3], 13 nM; in assay [4], 14.2 nM.

Take `CC1CN(c2cc(NC(=O)Nc3ccc(Oc4ccnc(NC(=O)C5CC5)c4)c(F)c3)cc(C(F)(F)F)c2)CC(C)O1` (stereo not drawn) [Exe. 047]: the IC50 came to 53.3 nM in assay [1] (setting [5]), 682 nM in assay [2] (setting [6]), 73.6 nM in assay [3] and 6.2 nM in assay [4].

Turning to `CN(C)C1CCN(c2cc(NC(=O)Nc3ccc(Oc4ccnc(NC(=O)C5CC5)c4)c(F)c3)cc(C(F)(F)F)c2)C1` (stereo not drawn) [Exe. 048], the IC50 was 25 nM in assay [1] (setting [5]), 233 nM in assay [2] (setting [6]), 11 nM in assay [3] and 7.3 nM in assay [4].

Take `O=C(Nc1cc(N2CCC(O)CC2)cc(C(F)(F)F)c1)Nc1ccc(Oc2ccnc(NC(=O)C3CC3)c2)c(F)c1` [Exe. 051]: the IC50 in assay [1] (setting [5]) is 33.9 nM; in assay [2] (setting [6]), 749 nM; in assay [3], 23.6 nM; in assay [4], 5.2 nM.

Take `O=C(Nc1cc(N2CCCC2=O)cc(C(F)(F)F)c1)Nc1ccc(Oc2ccnc(NC(=O)C3CC3)c2)c(F)c1` [Exe. 052]: the IC50 was 22 nM in assay [1] (setting [5]), 360 nM in assay [2] (setting [6]), 13 nM in assay [3] and 15.5 nM in assay [4].

`CC(F)(F)c1cncc(NC(=O)Nc2ccc(Oc3ccnc(NC(=O)C4CC4)c3)c(F)c2)c1` [Exe. 056]: the IC50 in assay [1] (setting [5]) came out at 39.7 nM; in assay [2] (setting [6]) it was 110 nM; in assay [3], 65 nM; in assay [4], 17.5 nM.

For `O=C(Nc1ccc(Oc2ccnc(NC(=O)C3CC3)c2)c(F)c1)Nc1cc(C2CC2)ccc1F` [Exe. 058], the IC50 in assay [1] (setting [5]) was found to be 30 nM; in assay [2] (setting [6]), 43 nM; in assay [3], 116 nM; in assay [4], 13.7 nM.

In the case of `O=C(Nc1ccc(Oc2ccnc(NC(=O)C3CC3)c2)c(F)c1)Nc1ccc2[nH]cc(F)c2c1` [Exe. 059], the IC50 in assay [1] (setting [5]) came to 19.4 nM; in assay [2] (setting [6]) it was 643 nM; in assay [3], 90 nM; in assay [4] it was 8.2 nM.

On to `O=C(Nc1cccc(C(F)(F)F)c1)Nc1ccc(Oc2ccnc(NC(=O)C3CC3)c2)c(F)c1` [Exe. 061], for which the IC50 amounted to 26.3 nM in assay [1] (setting [5]), 211 nM in assay [2] (setting [6]), 6.3 nM in assay [3] and 3.73 nM in assay [4].

Take `N#Cc1ccc(NC(=O)Nc2ccc(Oc3ccnc(NC(=O)C4CC4)c3)c(F)c2)cc1C(F)(F)F` [Exe. 062]: the IC50 came out at 29.4 nM in assay [1] (MDA-MB-231, read-out: MDA-MB-231 pERK IC50); 3050 nM in assay [2] (PLC-PRF-5, read-out: PLC-PRF-5 cell proliferation IC50); 7 nM in assay [3]; 7.18 nM in assay [4].

As for `O=C(Nc1ccc(Oc2ccnc(NC(=O)C3CC3)c2)c(F)c1)Nc1ccc(Cl)c(OC(F)(F)F)c1` [Exe. 063], the IC50 is 29.1 nM in assay [1] (setting [5]), 2330 nM in assay [2] (setting [6]), 14.9 nM in assay [3] and 5.5 nM in assay [4].

With `CC(F)(F)c1cncc(NC(=O)Nc2ccc(Oc3ccnc(NC(=O)C4CC4)c3)cc2)c1` [Exe. 065], the IC50 in assay [1] (setting [5]) is 46.5 nM; in assay [2] (setting [6]) it was 162 nM; in assay [3], 25 nM; in assay [4], 6.5 nM.

`Cc1cc(Oc2cc(NC(=O)C3CC3)ncn2)ccc1NC(=O)Nc1ccc(F)c(C(F)(F)F)c1` [Exe. 070, N-[6-[4-[[4-fluoro-3-(trifluoromethyl)phenyl]carbamoylamino]-3-methyl-phenoxy]pyrimidin-4-yl]cyclopropanecarboxamide]: the IC50 in assay [1] (setting [5]) is 63.5 nM; in assay [2] (setting [6]), 9300 nM; in assay [3] it was 145 nM; in assay [4], 11 nM.

As to `Cc1cc(Oc2cc(NC(=O)C3CC3)ncn2)ccc1NC(=O)Nc1cccc(C(F)(F)F)c1` [Exe. 074], the IC50 is 77.5 nM in assay [1] (setting [5]), 6070 nM in assay [2] (setting [6]), 146 nM in assay [3] and 10.5 nM in assay [4].

Consider `Cc1cc(Oc2cc(NC(=O)C3CC3)ncn2)ccc1NC(=O)Nc1ccc(Cl)c(C(C)(F)F)c1` [Exe. 085], for which the IC50 in assay [1] (setting [5]) was found to be 19.3 nM; in assay [2] (setting [6]), 11000 nM; in assay [3], 45 nM; in assay [4] it was 10.7 nM.

Take `CC(F)(F)c1cc(NC(=O)Nc2ccc(Oc3cc(NC(=O)C4CC4)ncn3)c(F)c2)ccc1Cl` [Exe. 105]: the IC50 in assay [1] (setting [5]) came out at 85.5 nM; in assay [2] (setting [6]) it was 1900 nM; in assay [3], 153 nM; in assay [4] it was 11.3 nM.

For `O=C(Nc1ccc(Oc2cc(NC(=O)C3CC3)ncn2)cc1F)Nc1cc(C(F)(F)F)ccc1F` [Exe. 107], the IC50 was 20.2 nM in assay [1] (setting [5]), 324 nM in assay [2] (setting [6]), 31 nM in assay [3] and 13.4 nM in assay [4].

`O=C(Nc1cccc(C(F)(F)F)c1)Nc1ccc(Oc2cc(NC(=O)C3CC3)ncn2)cc1F` [Exe. 108]: the IC50 in assay [1] (setting [5]) was 20 nM; in assay [2] (setting [6]), 1610 nM; in assay [3], 41 nM; in assay [4] it was 8.6 nM.

`CC(F)(F)c1ccc(F)c(NC(=O)Nc2ccc(Oc3cc(NC(=O)C4CC4)ncn3)cc2F)c1` [Exe. 109]: the IC50 in assay [1] (setting [5]) was 9.8 nM; in assay [2] (setting [6]), 274 nM; in assay [3] it was 32 nM; in assay [4], 10.9 nM.

Regarding `CC(F)(F)c1cc(NC(=O)Nc2ccc(Oc3cc(NC(=O)C4CC4)ncn3)cc2F)ccc1Cl` [Exe. 110], the IC50 in assay [1] (setting [5]) amounted to 13.4 nM; in assay [2] (setting [6]), 1580 nM; in assay [3], 24 nM; in assay [4] it was 7.3 nM.

As to `Cc1cc(NC(=O)Nc2cc(C(C)(F)F)ccc2F)ccc1Oc1cc(NC(=O)C2CC2)ncn1` [Exe. 116], the IC50 in assay [1] (setting [5]) was found to be 30.4 nM; in assay [2] (setting [6]), 125 nM; in assay [3], 111 nM; in assay [4] it was 7.9 nM.

For `Cc1cc(NC(=O)Nc2ccc(F)c(C(C)(F)F)c2)ccc1Oc1cc(NC(=O)C2CC2)ncn1` [Exe. 118], the IC50 in assay [1] (setting [5]) came to 55.3 nM; in assay [2] (setting [6]) it was 706 nM; in assay [3], 293 nM; in assay [4], 7.4 nM.
